Measurements taken from PMC9944328 (Nature Communications, 2023).
Read-outs that look alike come from different tables or passages of the source.

Test system: SSTR2 mutants
Test: SSTRs Gi-mediated cAMP inhibition, GloSensor, HEK293, 5 μM forskolin, 15 min room temperature (SSTR2 mutants)
Format: cell-based, human
Parameters: Best-fit Bottom, cAMP inhibition / Best-fit Top, cAMP inhibition / Span, cAMP inhibition / Bottom (best-fit value) / Top (best-fit value) / Span (best-fit value) / Span (best-fit) / Bottom (best-fit) / Top (best-fit) / Best-fit Bottom / Best-fit Top / Best-fit Span / Top / Span: scale not given here
Description: The levels of the intracellular 3′, 5′-cyclic AMP (cAMP) were measured by the GloSensor cAMP assay (Promega) as described in the previous studies[28],[41] which has been widely used. The human full-length SSTRs and mutants were cloned into the pcDNA3.1+ vector with a HA signal sequence followed by a Flag tag at the N-terminus. HEK293 cells (ATCC, CRL-1573) were seeded into 6-well microplates at a density of 1.0 × 10^6 cells/well and cultured for 24 h at 37 °C with 5% CO2. Cells were then co-transfected with SSTR wild-type or mutants and GloSensor plasmids. After 24 h of transfection, the cells were dissociated with TrypLE™ Express Enzyme (1X) (Thermo Fisher Scientific) and collected by centrifugation at 500 × g for 5 min. Then the collected cells were suspended in Hank’s balanced salt solution [HBSS (Thermo Fisher Scientific)] supplemented with […] (YEASEN), and then the suspension cells were seeded into 96-well plates with 90 μl/well. After incubating at room temperature for 40 min, 5 μM forskolin and ligands diluted in HBSS were added to each well and the plates were incubated at room temperature for 15 min. […] were measured using the Synergy H1 microplate reader (BioTek) and the data presented are means of at least three independent experiments.

Q: What does the source list for C[C@@H](O)[C@@H]1NC(=O)[C@H](CCCCN)NC(=O)[C@@H](Cc2c[nH]c3ccccc23)NC(=O)[C@H](Cc2ccccc2)NC(=O)[C@@H](NC(=O)[C@H](N)Cc2ccccc2)CSSC[C@@H](C(=O)N[C@H](CO)[C@@H](C)O)NC1=O [octreotide]?
A: Best-fit Bottom (D295A-1): -10.23; Best-fit Span (D295A-1): 99.42; Best-fit Top (D295A-1): 89.19; LogEC50 (D295A-1): -8.381; EC50 (D295A-1, read-out: EC50): 4.16 nM; Best-fit Bottom (D295A-2): 1.886; Best-fit Span (D295A-2): 96.17; Best-fit Top (D295A-2): 98.06; LogEC50 (D295A-2): -8.514; EC50 (D295A-2, read-out: EC50): 3.06 nM; Best-fit Span (D295A-3): 116.5; Best-fit Top (D295A-3): 121.2; LogEC50 (D295A-3): -8.224; EC50 (D295A-3, read-out: EC50): 5.97 nM; Span (best-fit) (F208A-1): 78.86; Span (best-fit) (F208A-2): 58.27; Bottom (best-fit) (F265A-1): 0.9849; LogEC50 (best-fit) (F265A-1): -7.854; Span (best-fit) (F265A-1): 101.1; Top (best-fit) (F265A-1): 102.1; EC50 (F265A-1, read-out: EC50 (best-fit)): 14 nM; Bottom (best-fit) (F265A-2): 21.57; LogEC50 (best-fit) (F265A-2): -8.682; Span (best-fit) (F265A-2): 69.47; Top (best-fit) (F265A-2): 91.04; EC50 (F265A-2, read-out: EC50 (best-fit)): 2.08 nM; Bottom (best-fit) (F265A-3): 0.9849; LogEC50 (best-fit) (F265A-3): -7.854; Span (best-fit) (F265A-3): 101.1; Top (best-fit) (F265A-3): 102.1; Bottom (best-fit) (F272A-1): 2.117; LogEC50 (best-fit) (F272A-1): -8.522; Span (best-fit) (F272A-1): 53.6; Top (best-fit) (F272A-1): 55.72; EC50 (F272A-1, read-out: EC50 (best-fit)): 3 nM; Bottom (best-fit) (F272A-2): 11.48; LogEC50 (best-fit) (F272A-2): -6.317; Span (best-fit) (F272A-2): 89.48; Top (best-fit) (F272A-2): 101; EC50 (F272A-2, read-out: EC50 (best-fit)): 482 nM; Bottom (best-fit) (F272A-3): 14.59; LogEC50 (best-fit) (F272A-3): -6.317; Span (best-fit) (F272A-3): 113.7; Top (best-fit) (F272A-3): 128.3; Best-fit Bottom (F294A-1): 3.53; Best-fit Span (F294A-1): 87.88; Best-fit Top (F294A-1): 91.41; LogEC50 (F294A-1): -6.677; EC50 (F294A-1, read-out: EC50): 211 nM; Best-fit Bottom (F294A-2): 6.308; Best-fit Span (F294A-2): 82.91; Best-fit Top (F294A-2): 89.22; LogEC50 (F294A-2): -6.828; EC50 (F294A-2, read-out: EC50): 149 nM; Best-fit Bottom (F294A-3): 4.16; Best-fit Span (F294A-3): 103.6; Best-fit Top (F294A-3): 107.7; LogEC50 (F294A-3): -6.677; Emax (Gi signaling, I130A, earlier manuscript version quoted by reviewer, superseded): 91%; Emax (Gi signaling, Q102A, earlier manuscript version quoted by reviewer, superseded): 109%; Emax (Gi signaling, SSTR2 D122(3.32)A, detected at 10 μM, n=3): 12.04±1.83 %WT; Emax (Gi signaling, SSTR2 D295(7.36)A, n=3): 102.80±9.54 %WT; EC50 (Gi signaling, SSTR2 D295(7.36)A, n=3, read-out: EC50): 4.4 ± 8.48 nM; Emax (Gi signaling, SSTR2 F127(3.37)A, n=3): 108.70±0.91 %WT; EC50 (Gi signaling, SSTR2 F127(3.37)A, n=3, read-out: EC50): 1.93 nM; Emax (Gi signaling, SSTR2 F208(5.38)A, n=3): 96.46±2.20 %WT; EC50 (Gi signaling, SSTR2 F208(5.38)A, n=3, read-out: EC50): 6.42 ± 2.37 nM; Emax (Gi signaling, SSTR2 F265(6.44)A, n=3): 99.81±4.55 %WT; EC50 (Gi signaling, SSTR2 F265(6.44)A, n=3, read-out: EC50): 12.3 ± 5.46 nM; Emax (Gi signaling, SSTR2 F272A, n=3): 95.01±21.17 %WT; EC50 (Gi signaling, SSTR2 F272A, n=3, read-out: EC50): 322.3 ± 1.6 nM; Emax (Gi signaling, SSTR2 F294(7.35)A, n=3): 96.11±5.83 %WT; EC50 (Gi signaling, SSTR2 F294(7.35)A, n=3, read-out: EC50): 190 ± 2.07 nM; Emax (Gi signaling, SSTR2 I130(3.40)A, n=3): 101.10±5.08 %WT; EC50 (Gi signaling, SSTR2 I130(3.40)A, n=3, read-out: EC50): 11.6 ± 4.99 nM; Emax (Gi signaling, SSTR2 I195(45.52)A, n=3): 100.40±3.58 %WT; EC50 (Gi signaling, SSTR2 I195(45.52)A, n=3, read-out: EC50): 6.58 ± 1.1 nM; Emax (Gi signaling, SSTR2 I284ECL3A, n=3): 97.53±14.28 %WT; EC50 (Gi signaling, SSTR2 I284ECL3A, n=3, read-out: EC50): 1.91 ± 4.66 nM; Emax (Gi signaling, SSTR2 K291(7.32)A, n=3): 89.41±10.26 %WT; EC50 (Gi signaling, SSTR2 K291(7.32)A, n=3, read-out: EC50): 5.46 ± 1.06 nM; Emax (Gi signaling, SSTR2 L99(2.60)A, n=3): 92.36±6.12 %WT; EC50 (Gi signaling, SSTR2 L99(2.60)A, n=3, read-out: EC50): 1.25 nM; Emax (Gi signaling, SSTR2 L290(7.31)A, n=3): 103.50±7.16 %WT; Emax (Gi signaling, SSTR2 N276(6.55)A, n=3): 107.20±5.70 %WT; EC50 (Gi signaling, SSTR2 N276(6.55)A, n=3, read-out: EC50): 35.1 ± 8.45 nM; Emax (Gi signaling, SSTR2 P220(5.50)A, n=3): 95.86±14.17 %WT; EC50 (Gi signaling, SSTR2 P220(5.50)A, n=3, read-out: EC50): 3.37 ± 1.32 nM; Emax (Gi signaling, SSTR2 P286ECL3A, n=3): 102.40±5.34 %WT; EC50 (Gi signaling, SSTR2 P286ECL3A, n=3, read-out: EC50): 0.62 ± 1.18 nM; Emax (Gi signaling, SSTR2 Q102(2.63)A, n=3): 71.48±1.31 %WT; EC50 (Gi signaling, SSTR2 Q102(2.63)A, n=3, read-out: EC50): 66.8 ± 2.72 nM; Emax (Gi signaling, SSTR2 Q126(3.36)A, detected at 10 μM, n=3): 21.88±1.91 %WT; Emax (Gi signaling, SSTR2 S279(6.58)A, n=3): 101.70±5.61 %WT; EC50 (Gi signaling, SSTR2 S279(6.58)A, n=3, read-out: EC50): 1.17 ± 1.01 nM; Emax (Gi signaling, SSTR2 S285ECL3A, n=3): 87.52±6.00 %WT; EC50 (Gi signaling, SSTR2 S285ECL3A, n=3, read-out: EC50): 0.69 ± 1.18 nM; Emax (Gi signaling, SSTR2 T194(45.51)A, n=3): 91.51±3.38 %WT; EC50 (Gi signaling, SSTR2 T194(45.51)A, n=3, read-out: EC50): 48.5 ± 2.29 nM; Emax (Gi signaling, SSTR2 T287ECL3A, n=3): 98.50±5.26 %WT; EC50 (Gi signaling, SSTR2 T287ECL3A, n=3, read-out: EC50): 0.6 nM; Emax (Gi signaling, SSTR2 V103(2.64)A, n=3): 90.80±3.48 %WT; EC50 (Gi signaling, SSTR2 V103(2.64)A, n=3, read-out: EC50): 7.66 ± 2.51 nM; Emax (Gi signaling, SSTR2 W188ECL3A, n=3): 102.40±5.12 %WT; EC50 (Gi signaling, SSTR2 W188ECL3A, n=3, read-out: EC50): 0.32 nM; Emax (Gi signaling, SSTR2 W269(6.48)A, n=3): 99.58±2.56 %WT; EC50 (Gi signaling, SSTR2 W269(6.48)A, n=3, read-out: EC50): 0.89 ± 2.24 nM; Emax (Gi signaling, SSTR2 Y50(1.39)A, n=3): 104.70±0.48 %WT; EC50 (Gi signaling, SSTR2 Y50(1.39)A, n=3, read-out: EC50): 0.46 nM; Emax (Gi signaling, SSTR2 Y205(5.35)A, n=3): 112.90±25.77 %WT; EC50 (Gi signaling, SSTR2 Y205(5.35)A, n=3, read-out: EC50): 0.92 nM; Emax (Gi signaling, SSTR2 Y302(7.43)A, n=3): 79.09±10.74 %WT; EC50 (Gi signaling, SSTR2 Y302(7.43)A, n=3, read-out: EC50): 79 ± 2.7 nM; Bottom (best-fit value) (I284A-1, run 1): 8.872; LogEC50 (best-fit value) (I284A-1, run 1): -8.868; Span (best-fit value) (I284A-1, run 1): 107.4
